Source: patent publication US9115083B2 (Simpson Biotech Co., Ltd, priority 2011, dated 2015)

Target: HCV NS3/4A protease (Hepatitis C virus genotype 1a (isolate H77) (HCV), UniProt P27958)
Assay: HCV protease assay (fluorimetric, FRET substrate)
Assay type: biochemical
Details: HCV NS3/4A protease, 30 min at 37° C., triplicate; read-out: IC50 against HCV protease
Description: The HCV protease assay herein was applied to investigate the HCV-protease inhibitory activity of the prepared compounds as described above. The method of the HCV protease assay was described in D. T. Phuong, C. M. Ma, M. Hattori and J. S. Jin: Inhibitory Effects of Antrodins A-E from Antrodia cinnamomea and Their Metabolites on Hepatitis C Virus Protease. Phytotherapy Research, 23, 582-584, 2009. Two micro liters of a compound solution (using DMSO as solvent) was placed in 384 well micro plate, then 8 μl of HCV NS3/4A protease ([…]) was added to the well containing a sample and the plate was agitated. Finally, 10 μL of freshly prepared substrate (Ac-Asp-Glu-Dap(QXL™520)-Glu-Glu-Abu-COO-Ala-Ser-Cys(5-FAMsp)-NH2) (100× dilution of a DMSO stock solution) was added with sequential rotational shaking. The reaction mixture was incubated for 30 min at 37° C. The fluorimetric analyses were performed on an automated TECAN GENios plate reader with excitation wavelength at 485 nm and emission 530 nm. Each test compound was carried out in triplicate. The HCV—PR inhibition (%) was calculated by using the following equation: % inhibition=(Fvehicle control−[…])×100/Fvehicle control (Where F is the fluorescence value of vehicle control or of sample minus the fluorescence of the substrate control).

HCV NS3/4A protease, sequence (P27958 1027-1657): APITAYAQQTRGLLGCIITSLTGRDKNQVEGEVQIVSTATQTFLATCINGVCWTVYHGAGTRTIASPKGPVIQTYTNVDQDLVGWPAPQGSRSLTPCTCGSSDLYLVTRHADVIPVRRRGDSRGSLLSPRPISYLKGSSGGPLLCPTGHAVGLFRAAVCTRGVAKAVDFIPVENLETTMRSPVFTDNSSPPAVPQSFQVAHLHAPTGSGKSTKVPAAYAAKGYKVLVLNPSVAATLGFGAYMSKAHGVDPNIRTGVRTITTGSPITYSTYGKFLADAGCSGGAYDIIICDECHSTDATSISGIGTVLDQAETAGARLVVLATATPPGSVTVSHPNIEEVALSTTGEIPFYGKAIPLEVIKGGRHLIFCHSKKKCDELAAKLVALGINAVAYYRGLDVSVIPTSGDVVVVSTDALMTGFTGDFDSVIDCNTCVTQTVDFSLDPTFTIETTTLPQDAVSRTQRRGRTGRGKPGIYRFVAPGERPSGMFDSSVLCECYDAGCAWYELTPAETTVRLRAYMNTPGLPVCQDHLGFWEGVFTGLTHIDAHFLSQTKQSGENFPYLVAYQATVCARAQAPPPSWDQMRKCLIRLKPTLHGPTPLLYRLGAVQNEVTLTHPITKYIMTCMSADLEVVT
HCV NS3/4A protease, sequence (P27958 1658-1711 partner): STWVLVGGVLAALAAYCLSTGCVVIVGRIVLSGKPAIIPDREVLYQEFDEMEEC

Row | Compound | IC50
1 | COC(=O)C(NC(=O)C(CC(C)C)N1C(=O)C(CC(C)C)=C(c2ccc(OCC=C(C)C)cc2)C1=O)C(C)C (stereo not shown) [Compound A1-1, Methyl 2-(2-(3-isobutyl-4-(4-(3-methylbut-2-enyloxy)phenyl)-2,5-dioxo-2,5-dihydro-1H-pyrrol-1-yl)-4-methylpentanamido)-3-methyl-butanoate] | > 100 µM
2 | CCOC(=O)C(Cc1ccc(O)cc1)NC(=O)C(CC(C)C)N1C(=O)C(CC(C)C)=C(c2ccc(OCC=C(C)C)cc2)C1=O (stereo not shown) [Compound A1-2, Ethyl 3-(4-hydroxyphenyl)-2-(2-(3-isobutyl-4-(4-(3-methylbut-2-enyloxy)phenyl)-2,5-dioxo-2,5-dihydro-1H-1-yl)-4-methylpentanamido)propanoate] | > 100 µM
3 | COC(=O)C(CO)NC(=O)C(CC(C)C)N1C(=O)C(CC(C)C)=C(c2ccc(OCC=C(C)C)cc2)C1=O (stereo not shown) [Compound A1-3, Methyl 3-hydroxy-2-(2-(3-isobutyl-4-(4-(3-methylbut-2-enyloxy)-phenyl)-2,5-dioxo-2,5-dihydro-1H-pyrrol-1-yl)-4-methylpentanamido)-propanoate] | > 100 µM
4 | COC(=O)C1CCCN1C(=O)C(CC(C)C)N1C(=O)C(CC(C)C)=C(c2ccc(OCC=C(C)C)cc2)C1=O (stereo not shown) [Compound A1-4] | > 100 µM
5 | CC(C)=CCOc1ccc(C2=C(CC(C)C)C(=O)N(C(CC(C)C)C(=O)NC3CC3)C2=O)cc1 (stereo not shown) [Compound A1-6, N-Cyclopropyl-2-(3-isobutyl-4-(4-(3-methylbut-2-enyloxy)phenyl)-2,5-dioxo-2,5-dihydro-1H-pyrrol-1-yl)-4-methylpentanamide] | > 200 µM
6 | CC(C)CC1C(=O)N(C(CC(C)C)C(=O)N[C@@H](Cc2ccccc2)C(=O)O)C(=O)C1c1ccc(O)cc1 (stereo partly shown) [Compound A1-7] | 27 µM
7 | CC(C)CC1C(=O)N(C(CC(C)C)C(=O)N[C@@H](C)C(=O)O)C(=O)C1c1ccc(O)cc1 (stereo partly shown) [Compound A1-10] | 16 µM
8 | COC(=O)[C@H](CC(C)C)NC(=O)C(Cc1ccccc1)N1C(=O)C(CC(C)C)=C(c2ccc(OCC=C(C)C)cc2)C1=O (stereo partly shown) [Compound A2-1, Methyl 2-(2-(3-isobutyl-4-(4-(3-methylbut-2-enyloxy)phenyl)-2,5-dioxo-2,5-dihydro-1H-pyrrol-1-yl)-3-phenylpropanamido)-4-methylpentanoate] | > 100 µM
9 | CCOC(=O)C(Cc1ccccc1)NC(=O)C(Cc1ccccc1)N1C(=O)C(CC(C)C)=C(c2ccc(OCC=C(C)C)cc2)C1=O (stereo not shown) [Compound A2-2, Ethyl 2-(2-(3-isobutyl-4-(4-(3-methylbut-2-enyloxy)phenyl)-2,5-dioxo-2,5-dihydro-1H-pyrrol-1-yl)-3-phenylpropanamido)-3-phenylpropanoate] | 100 µM
10 | CCOC(=O)[C@H](Cc1ccc(O)cc1)NC(=O)C(Cc1ccccc1)N1C(=O)C(CC(C)C)=C(c2ccc(OCC=C(C)C)cc2)C1=O (stereo partly shown) [Compound A2-3, Ethyl 3-(4-hydroxyphenyl)-2-(2-(3-isobutyl-4-(4-(3-methylbut-2-enyloxy)phenyl)-2,5-dioxo-2,5-dihydro-1H-pyrrol-1-yl)-3-phenylpropanamido)propanoate] | 100 µM
11 | CC(C)CC1C(=O)N(C(Cc2ccccc2)C(=O)N[C@@H](CC(C)C)C(=O)O)C(=O)C1c1ccc(O)cc1 (stereo partly shown) [Compound A2-11] | 120 µM
12 | CC(C)CC1C(=O)N(C(Cc2ccccc2)C(=O)N[C@@H](Cc2ccccc2)C(=O)O)C(=O)C1c1ccc(O)cc1 (stereo partly shown) [Compound A2-12] | 192 µM
13 | CC(C)CC1C(=O)N(C(CO)C(=O)N[C@@H](Cc2ccccc2)C(=O)O)C(=O)C1c1ccc(O)cc1 (stereo partly shown) [Compound A3-16] | 132 µM
14 | CC(C)=CCOc1ccc(C2=C(CC(C)C)C(=O)N(C(Cc3ccc(O)cc3)C(=O)O)C2=O)cc1 (stereo not shown) [Compound A4, 3-(4-Hydroxyphenyl)-2-(3-isobutyl-4-(4-(3-methylbut-2-enyloxy)-phenyl)-2,5-dioxo-2,5-dihydro-1H-pyrrol-1-yl)propanoic acid] | 16 µM
15 | CSCCC(C(=O)O)N1C(=O)C(CC(C)C)=C(c2ccc(OCC=C(C)C)cc2)C1=O (stereo not shown) [Compound A5, 2-(3-Isobutyl-4-(4-(3-methylbut-2-enyloxy)phenyl)-2,5-dioxo-2,5-dihydro-1H-pyrrol-1-yl)-4-(methylthio)butanoic acid] | 21 µM
16 | CC(C)=CCOc1ccc(C2=C(CC(C)C)C(=O)N(C(C(=O)O)C(C)O)C2=O)cc1 (stereo not shown) [Compound A6, 3-Hydroxy-2-(3-isobutyl-4-(4-(3-methylbut-2-enyloxy)phenyl)-2,5-dioxo-2,5-dihydro-1H-pyrrol-1-yl)butanoic acid] | 18 µM
17 | CC(C)=CCOc1ccc(C2=C(CC(C)C)C(=O)N(C(C(=O)O)C(C)C)C2=O)cc1 (stereo not shown) [Compound A7, 2-(3-Isobutyl-4-(4-(3-methylbut-2-enyloxy)phenyl)-2,5-dioxo-2,5-dihydro-1H-pyrrol-1-yl)-3-methylbutanoic acid] | 23.3 µM
18 | CC(C)=CCOc1ccc(C2=C(CC(C)C)C(=O)N(C(C)C(=O)O)C2=O)cc1 (stereo not shown) [Compound A8, 2-(3-Isobutyl-4-(4-(3-methylbut-2-enyloxy)phenyl)-2,5-dioxo-2,5-dihydro-1H-pyrrol-1-yl)propanoic acid] | 27 µM
19 | CC(C)=CCOc1ccc(C2=C(CC(C)C)C(=O)N(C(CCC(=O)O)C(=O)O)C2=O)cc1 (stereo not shown) [Compound A9, 2-(3-Isobutyl-4-(4-(3-methylbut-2-enyloxy)phenyl)-2,5-dioxo-2,5-dihydro-1H-pyrrol-1-yl)pentanedioic acid] | 19 µM
20 | CC(C)CC1C(=O)N(C(Cc2ccccc2)C(=O)O)C(=O)C1c1ccc(O)cc1 (stereo not shown) [Compound A11] | 63 µM

Row | Compound | IC50
21 | CC(C)CC1C(=O)N(C(CO)C(=O)O)C(=O)C1c1ccc(O)cc1 (stereo not shown) [Compound A12] | 25 µM
22 | CC(C)CC1C(=O)N(C(C(=O)O)C(C)C)C(=O)C1c1ccc(O)cc1 (stereo not shown) [Compound A15] | 85 µM
23 | CC(C)CC1C(=O)N(C(C)C(=O)O)C(=O)C1c1ccc(O)cc1 (stereo not shown) [Compound A16] | 170 µM
24 | CC(C)CC1C(=O)N(C(CCOCO)C(=O)O)C(=O)C1c1ccc(O)cc1 (stereo not shown) [Compound A17] | 105 µM
25 | CC(C)=CCOc1ccc(C2=C(CC(C)C)C(=O)N(CC(O)C(=O)O)C2=O)cc1 (stereo not shown) [KA, 2-Hydroxy-3-(3-isobutyl-4-(4-(3-methylbut-2-enyloxy)phenyl)-2,5-dioxo-2,5-dihydro-1H-pyrrol-1-yl)propanoic acid] | 8.7 µM
26 | CC(C)=CCOc1ccc(C2=C(CC(C)C)C(=O)N(CC(=O)C(=O)NC(C)C(=O)OC(C)(C)C)C2=O)cc1 (stereo not shown) [KA-5-2] | 47.6 µM
27 | CC(C)CC1C(=O)N(CC(=O)C(=O)NC(C)C(=O)O)C(=O)C1c1ccc(O)cc1 (stereo not shown) [KA-5] | 70 µM
28 | CC(C)CC1C(=O)N(CC(O)C(=O)O)C(=O)C1c1ccc(O)cc1 (stereo not shown) [KA-t] | 185 µM
29 | CC(C)=CCOc1ccc(C2=C(CC(C)C)C(=O)N(CC(=O)C(N)=O)C2=O)cc1 [KAnh-1] | 153 µM
30 | CC(C)CC1C(=O)N(CC(=O)C(N)=O)C(=O)C1c1ccc(O)cc1 (stereo not shown) [KAnh-2] | 146 µM
31 | CC(C)=CCOc1ccc(C2=C(CC(C)C)C(=O)N(CCC(O)C(=O)O)C2=O)cc1 (stereo not shown) [KB, 2-Hydroxy-4-(3-isobutyl-4-(4-(3-methylbut-2-enyloxy)phenyl)-2,5-dioxo-2,5-dihydro-1H-pyrrol-1-yl)butanoic acid] | 15.6 µM
32 | CC(C)=CCOc1ccc(C2=C(CC(C)C)C(=O)N(CCC(=O)C(=O)NC3CC3)C2=O)cc1 [KB-1, N-Cyclopropyl-4-(3-isobutyl-4-(4-(3-methylbut-2-enyloxy)phenyl)-2,5-dioxo-2,5-dihydro-1H-pyrrol-1-yl)-2-oxobutanamide] | 61.9 µM
33 | CC(C)=CCOc1ccc(C2=C(CC(C)C)C(=O)N(CCC(=O)C(=O)NC(C)C(=O)OC(C)(C)C)C2=O)cc1 (stereo not shown) [KB-1-2] | 35.2 µM
34 | CC(C)=CCOc1ccc(C2=C(CC(C)C)C(=O)N(CCC(=O)C(=O)NC(Cc3ccccc3)C(=O)OC(C)(C)C)C2=O)cc1 (stereo not shown) [KB-2-2] | 16.2 µM
35 | CC(C)CC1C(=O)N(CCC(=O)C(=O)NC(Cc2ccccc2)C(=O)O)C(=O)C1c1ccc(O)cc1 (stereo not shown) [KB-2] | 100 µM
36 | CC(C)=CCOc1ccc(C2=C(CC(C)C)C(=O)N(CCC(=O)C(N)=O)C2=O)cc1 [KBnh-1] | 12.1 µM
37 | CC(C)CC1C(=O)N(CCC(=O)C(N)=O)C(=O)C1c1ccc(O)cc1 (stereo not shown) [KBnh-2] | 7.4 µM
38 | CC(C)=CCOc1ccc(C2=C(CC(C)C)C(=O)N(C(c3ccccc3)C(O)C(=O)O)C2=O)cc1 (stereo not shown) [KC, 2-Hydroxy-3-(3-isobutyl-4-(4-(3-methylbut-2-enyloxy)phenyl)-2,5-dioxo-2,5-dihydro-1H-pyrrol-1-yl)-3-phenylpropanoic acid] | 5 µM
39 | CCOC(=O)[C@H](Cc1ccccc1)NC(=O)C(=O)C(c1ccccc1)N1C(=O)C(CC(C)C)=C(c2ccc(OCC=C(C)C)cc2)C1=O (stereo partly shown) [KC-1, Ethyl 2-(3-(3-isobutyl-4-(4-(3-methylbut-2-enyloxy)phenyl)-2,5-dioxo-2,5-dihydro-1H-pyrrol-1-yl)-2-oxo-3-phenylpropanamido)-3-phenylpropanoate] | > 100 µM
40 | CCOC(=O)[C@H](C)NC(=O)C(=O)C(c1ccccc1)N1C(=O)C(CC(C)C)=C(c2ccc(OCC=C(C)C)cc2)C1=O (stereo partly shown) [KC-2, Ethyl 2-(3-(3-isobutyl-4-(4-(3-methylbut-2-enyloxy)phenyl)-2,5-dioxo-2,5-dihydro-1H-pyrrol-1-yl)-2-oxo-3-phenylpropanamido)propanoate] | > 100 µM
